Where two headings read alike, the source gives them in different places.
Tests used:
hJAK2 = hJAK2 (Homo sapiens (Human), UniProt O60674); assay: hJAK2 LANCE TR-FRET enzymatic assay; type: biochemical; conditions: read-out: JAK2 IC50
TBK1 = TBK1 (Homo sapiens (Human), UniProt Q9UHD2); assay: TBK1 TR-FRET enzymatic assay;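 further: phosphorylation of a biotinylated Ser/Thr peptide by purified full-length recombinant TBK1, read by TR-FRET after 240 min at 25 °C, IC50 is the geometric mean of at least four runs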
Sequence of TBK1 (Q9UHD2 whole entry): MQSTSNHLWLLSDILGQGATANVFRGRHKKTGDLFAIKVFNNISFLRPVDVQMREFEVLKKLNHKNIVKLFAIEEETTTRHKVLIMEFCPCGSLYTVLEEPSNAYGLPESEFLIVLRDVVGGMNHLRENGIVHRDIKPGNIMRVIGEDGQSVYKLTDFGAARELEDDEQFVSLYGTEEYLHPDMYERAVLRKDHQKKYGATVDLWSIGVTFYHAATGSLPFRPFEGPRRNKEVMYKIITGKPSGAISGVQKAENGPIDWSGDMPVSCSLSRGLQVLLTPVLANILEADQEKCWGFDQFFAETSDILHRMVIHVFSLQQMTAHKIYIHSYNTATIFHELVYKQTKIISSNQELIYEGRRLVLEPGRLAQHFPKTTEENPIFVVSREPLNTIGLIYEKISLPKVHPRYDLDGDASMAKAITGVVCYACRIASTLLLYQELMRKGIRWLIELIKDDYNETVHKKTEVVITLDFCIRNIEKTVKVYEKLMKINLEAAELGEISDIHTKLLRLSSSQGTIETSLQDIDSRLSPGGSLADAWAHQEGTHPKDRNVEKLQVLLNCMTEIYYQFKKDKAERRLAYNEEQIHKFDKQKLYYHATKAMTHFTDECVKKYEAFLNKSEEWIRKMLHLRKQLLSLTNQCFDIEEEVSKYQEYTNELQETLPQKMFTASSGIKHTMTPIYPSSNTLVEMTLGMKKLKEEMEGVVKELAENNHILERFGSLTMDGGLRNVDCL

IKKε = IKKε (Homo sapiens (Human), UniProt Q14164); assay: IKKε TR-FRET enzymatic assay; type: biochemical; conditions: read-out: IKKe IC50
Sequence of IKKε (Q14164 whole entry): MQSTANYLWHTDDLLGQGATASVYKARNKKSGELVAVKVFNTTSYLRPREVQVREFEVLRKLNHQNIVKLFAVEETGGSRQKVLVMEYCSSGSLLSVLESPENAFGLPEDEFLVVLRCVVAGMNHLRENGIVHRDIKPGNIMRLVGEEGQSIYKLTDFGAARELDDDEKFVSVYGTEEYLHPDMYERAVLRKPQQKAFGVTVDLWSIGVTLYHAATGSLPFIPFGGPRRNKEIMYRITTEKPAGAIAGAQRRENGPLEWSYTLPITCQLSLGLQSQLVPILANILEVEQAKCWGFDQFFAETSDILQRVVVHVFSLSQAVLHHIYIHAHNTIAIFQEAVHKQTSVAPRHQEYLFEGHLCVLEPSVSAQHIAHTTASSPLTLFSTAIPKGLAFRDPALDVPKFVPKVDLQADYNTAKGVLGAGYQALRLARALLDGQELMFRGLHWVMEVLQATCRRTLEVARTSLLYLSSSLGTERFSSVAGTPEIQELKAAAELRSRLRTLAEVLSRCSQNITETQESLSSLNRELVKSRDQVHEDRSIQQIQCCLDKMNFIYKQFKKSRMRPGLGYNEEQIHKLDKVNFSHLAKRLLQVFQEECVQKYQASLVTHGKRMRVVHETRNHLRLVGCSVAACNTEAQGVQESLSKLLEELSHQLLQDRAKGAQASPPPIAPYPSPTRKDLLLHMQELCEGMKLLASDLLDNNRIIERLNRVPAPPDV

[1] = TR-FRET, 2×Km ATP, geometric mean of minimum four determinations

Sequence of hJAK2 (O60674 whole entry): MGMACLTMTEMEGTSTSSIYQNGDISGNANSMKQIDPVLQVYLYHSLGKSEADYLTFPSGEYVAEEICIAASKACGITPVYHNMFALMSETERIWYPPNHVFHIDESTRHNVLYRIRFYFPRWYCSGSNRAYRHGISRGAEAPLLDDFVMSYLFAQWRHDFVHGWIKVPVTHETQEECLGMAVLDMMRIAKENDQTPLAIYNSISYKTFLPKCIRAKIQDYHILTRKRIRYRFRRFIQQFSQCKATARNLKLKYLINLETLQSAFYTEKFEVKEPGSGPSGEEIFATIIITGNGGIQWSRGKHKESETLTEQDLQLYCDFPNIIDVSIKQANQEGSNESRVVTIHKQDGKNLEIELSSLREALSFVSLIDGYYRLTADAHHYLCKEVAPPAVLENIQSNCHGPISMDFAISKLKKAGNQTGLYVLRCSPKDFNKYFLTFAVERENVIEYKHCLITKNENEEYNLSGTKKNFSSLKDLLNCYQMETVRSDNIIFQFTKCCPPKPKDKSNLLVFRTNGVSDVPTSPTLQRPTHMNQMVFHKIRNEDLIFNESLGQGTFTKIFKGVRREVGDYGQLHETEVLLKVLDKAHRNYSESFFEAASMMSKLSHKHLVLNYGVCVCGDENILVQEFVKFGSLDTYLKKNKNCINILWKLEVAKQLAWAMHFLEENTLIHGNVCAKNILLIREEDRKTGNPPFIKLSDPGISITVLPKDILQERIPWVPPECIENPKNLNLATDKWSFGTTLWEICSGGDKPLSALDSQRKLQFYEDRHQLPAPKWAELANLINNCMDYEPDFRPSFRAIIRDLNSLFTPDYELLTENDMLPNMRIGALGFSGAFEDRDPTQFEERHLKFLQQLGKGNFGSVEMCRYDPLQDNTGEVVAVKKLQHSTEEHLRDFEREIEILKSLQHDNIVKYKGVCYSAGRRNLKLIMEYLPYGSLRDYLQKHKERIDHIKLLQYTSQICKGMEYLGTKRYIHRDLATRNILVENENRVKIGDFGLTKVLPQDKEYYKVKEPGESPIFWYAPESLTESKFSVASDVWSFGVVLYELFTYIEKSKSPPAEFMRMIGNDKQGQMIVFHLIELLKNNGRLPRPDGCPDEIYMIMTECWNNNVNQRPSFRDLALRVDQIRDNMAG

Compound	IC50 (hJAK2) [nM]	IC50 (TBK1) [nM]	IC50 (IKKε) [nM]	IC50 (IKKε; [1]) [nM]
CS(=O)(=O)N1CC[C@@H](Oc2ccc(-c3ncnc(Nc4ccc(N5CCN(C6COC6)CC5)cc4)n3)cc2C#N)C1 [Example 197, (R)-2-((1-(methylsulfonyl)pyrrolidin-3-yl)oxy)-5-(4-((4-(4-(oxetan-3-yl)piperazin-1-yl)phenyl)amino)-1,3,5-triazin-2-yl)benzonitrile]	173	26	79	–
N#CCC(=O)Nc1ccc(-c2ncnc(Nc3ccc(N4CCN(C5COC5)CC4)cc3)n2)cc1C#N [Example 494, 2-cyano-N-(2-cyano-4-(4-((4-(4-(oxetan-3-yl)piperazin-1-yl)phenyl)amino)-1,3,5-triazin-2-yl)phenyl)acetamide]	12	19	–	29
N#Cc1cc(-c2ncnc(Nc3ccc(N4CCN(C5COC5)CC4)cc3)n2)ccc1OC1CN(C(=O)CO)CC1(F)F (stereo not drawn) [Example 98, 2-((4,4-difluoro-1-(2-hydroxyacetyl)pyrrolidin-3-yl)oxy)-5-(4-((4-(4-(oxetan-3-yl)piperazin-1-yl)phenyl)amino)-1,3,5-triazin-2-yl)benzonitrile]	119	5	14	–
N#Cc1cc(-c2ncnc(Nc3ccc(N4CCN(C5COC5)CC4)cc3)n2)ccc1O[C@@H]1CN(C(=O)CO)C[C@H]1F [Example 193, 2-(((3R,4R)-4-fluoro-1-(2-hydroxyacetyl)pyrrolidin-3-yl)oxy)-5-(4-((4-(4-(oxetan-3-yl)piperazin-1-yl)phenyl)amino)-1,3,5-triazin-2-yl)benzonitrile]	≥ 1000	14	48	–
N#Cc1cc(-c2ncnc(Nc3ccc(N4CCOCC4)cc3F)n2)ccc1O[C@H]1CCN(C(=O)[C@@H](O)CO)C[C@H]1F [Example 556, 2-(((3R,4S)-1-((S)-2,3-dihydroxypropanoyl)-3-fluoropiperidin-4-yl)oxy)-5-(4-((2-fluoro-4-morpholinophenyl)amino)-1,3,5-triazin-2-yl)benzonitrile]	≥ 1000	3	–	5
N#Cc1cc(-c2ncnc(Nc3ccc(N4CCN(C5COC5)CC4)cc3)n2)ccc1OC1CCNCC1(F)F (racemic) [Example 148, 2-((3,3-difluoropiperidin-4-yl)oxy)-5-(4-((4-(4-(oxetan-3-yl)piperazin-1-yl)phenyl)amino)-1,3,5-triazin-2-yl)benzonitrile]	242	3	23	–
COc1cc(Nc2ncnc(-c3ccc(OC4CCOCC4)c(C#N)c3)n2)cc(OC)c1OC [Example 24, 2-((tetrahydro-2H-pyran-4-yl)oxy)-5-(4-((3,4,5-trimethoxyphenyl)amino)-1,3,5-triazin-2-yl)benzonitrile]	602	1	2	–
Cc1cc(-c2ncnc(Nc3ccc(N4CCN(C5COC5)CC4)cc3)n2)cc(C#N)c1O[C@H]1CCN(C(=O)CO)C[C@H]1F [Example 522, 2-(((3R,4S)-3-fluoro-1-(2-hydroxyacetyl)piperidin-4-yl)oxy)-3-methyl-5-(4-((4-(4-(oxetan-3-yl)piperazin-1-yl)phenyl)amino)-1,3,5-triazin-2-yl)benzonitrile]	≥ 1000	14	–	28
N#Cc1cc(-c2ncnc(Nc3ccc(N4CCN(C5COC5)CC4)cc3)n2)ccc1F [Example 87, 2-Fluoro-5-(4-((4-(4-(oxetan-3-yl)piperazin-1-yl)phenyl)amino)-1,3,5-triazin-2-yl)benzonitrile]	> 1000	853	> 1000	–
N#Cc1cc(-c2ncnc(Nc3ccc(N4CCN(C5COC5)CC4)cc3)n2)ccc1OC1CCN(C(=O)CO)CC1 [Example 16, 2-((1-(2-hydroxyacetyl)piperidin-4-yl)oxy)-5-(4-((4-(4-(oxetan-3-yl)piperazin-1-yl)phenyl)amino)-1,3,5-triazin-2-yl)benzonitrile]	603	1	4	–
Cc1ncsc1Nc1ncnc(-c2ccc(O[C@H]3CCN(C(=O)CO)C[C@H]3F)c(C#N)c2)n1 [Example 563, 2-(((3R,4S)-3-fluoro-1-(2-hydroxyacetyl)piperidin-4-yl)oxy)-5-(4-((4-methylthiazol-5-yl)amino)-1,3,5-triazin-2-yl)benzonitrile]	≥ 1000	5	–	3
N#Cc1cc(-c2ncnc(Nc3ccc(N4CCN(C5COC5)CC4)cc3)n2)ccc1O[C@H]1CCN(C(=O)[C@@H]2CC(=O)N2)C[C@H]1F [Example 529, 2-(((3R,4S)-3-fluoro-1-((S)-4-oxoazetidine-2-carbonyl)piperidin-4-yl)oxy)-5-(4-((4-(4-(oxetan-3-yl)piperazin-1-yl)phenyl)amino)-1,3,5-triazin-2-yl)benzonitrile]	356	3	–	4
N#Cc1cc(-c2ncnc(Nc3ccc(N4CCN(C5COC5)CC4)cc3)n2)ccc1O[C@H]1CCN(C(=O)[C@@H]2COCCN2)C[C@H]1F [Example 475, 2-(((3R,4S)-3-fluoro-1-((S)-morpholine-3-carbonyl)piperidin-4-yl)oxy)-5-(4-((4-(4-(oxetan-3-yl)piperazin-1-yl)phenyl)amino)-1,3,5-triazin-2-yl)benzonitrile]	≥ 1000	23	–	50
CC(=O)Nc1ccc(Nc2ncnc(-c3ccc(O[C@H]4CCN(C(=O)[C@@H]5CCC(=O)N5)C[C@H]4F)c(C#N)c3)n2)cn1 [Example 537, N-(5-((4-(3-cyano-4-(((3R,4S)-3-fluoro-1-((S)-5-oxopyrrolidine-2-carbonyl)piperidin-4-yl)oxy)phenyl)-1,3,5-triazin-2-yl)amino)pyridin-2-yl)acetamide]	≥ 1000	8	–	18

Next, values leading:

IC50 (hJAK2) [nM]	IC50 (TBK1) [nM]	IC50 (IKKε) [nM]	IC50 (IKKε; [1]) [nM]	Compound
249	2	1	–	C[C@@H]1CN(C2COC2)CCN1c1ccc(Nc2ncnc(-c3ccc(O[C@H]4CCN(C(=O)CO)C[C@H]4F)c(C#N)c3)n2)cc1 [Example 242, 2-(((3R,4S)-3-fluoro-1-(2-hydroxyacetyl)piperidin-4-yl)oxy)-5-(4-((4-((R)-2-methyl-4-(oxetan-3-yl)piperazin-1-yl)phenyl)amino)-1,3,5-triazin-2-yl)benzonitrile]
296	2	1	–	C[C@H](O)C(=O)N1CC[C@H](Oc2ccc(-c3ncnc(Nc4ccc(N5CCN(C6COC6)[C@@H](C)C5)cc4)n3)cc2C#N)[C@H](F)C1 [Example 264, 2-(((3R,4S)-3-fluoro-1-((S)-2-hydroxypropanoyl)piperidin-4-yl)oxy)-5-(4-((4-((S)-3-methyl-4-(oxetan-3-yl)piperazin-1-yl)phenyl)amino)-1,3,5-triazin-2-yl)benzonitrile]
122	4	9	–	N#Cc1cc(-c2ncnc(Nc3ccc(N4CCN(C5COC5)CC4)cc3)n2)ccc1O[C@H]1CCN(C(=O)c2cncc(N)n2)C[C@H]1F [Example 340, 2-(((3R,4S)-1-(6-aminopyrazine-2-carbonyl)-3-fluoropiperidin-4-yl)oxy)-5-(4-((4-(4-(oxetan-3-yl)piperazin-1-yl)phenyl)amino)-1,3,5-triazin-2-yl)benzonitrile]
404	120	264	–	Cn1cncc1C(=O)N1CC[C@H](Oc2ccc(-c3ncnc(Nc4ccc(N5CCN(C6COC6)CC5)cc4)n3)cc2C#N)[C@H](F)C1 [Example 267, 2-(((3R,4S)-3-fluoro-1-(1-methyl-1H-imidazole-5-carbonyl)piperidin-4-yl)oxy)-5-(4-((4-(4-(oxetan-3-yl)piperazin-1-yl)phenyl)amino)-1,3,5-triazin-2-yl)benzonitrile]
207	79	209	–	C[C@@H](O)C(=O)N1CC[C@@H](Oc2ccc(-c3ncnc(Nc4ccc(N5CCN(C6COC6)CC5)cc4)n3)cc2C#N)C(F)(F)C1 (single isomer, unassigned) [Example 159]
≥ 1000	41	–	64	CN(CCO)C(=O)N1CC[C@H](Oc2ccc(-c3ncnc(Nc4ccc(N5CCN(C6COC6)CC5)cc4)n3)cc2C#N)[C@H](F)C1 [Example 428, (3R,4S)-4-(2-cyano-4-(4-((4-(4-(oxetan-3-yl)piperazin-1-yl)phenyl)amino)-1,3,5-triazin-2-yl)phenoxy)-3-fluoro-N-(2-hydroxyethyl)-N-methylpiperidine-1-carboxamide]
≥ 1000	5	–	4	C[C@H](O)C(=O)N1CC[C@H](Oc2ccc(-c3ncnc(Nc4ccc(-n5ccnc5)cc4)n3)cc2C#N)[C@H](F)C1 [Example 554, 5-(4-((4-(1H-imidazol-1-yl)phenyl)amino)-1,3,5-triazin-2-yl)-2-(((3R,4S)-3-fluoro-1-((S)-2-hydroxypropanoyl)piperidin-4-yl)oxy)benzonitrile]
294	2	–	3	N#Cc1cc(-c2ncnc(Nc3ccc(N4CCN(C5COC5)CC4)cc3)n2)ccc1O[C@H]1CCN(C(=O)[C@H](O)CO)C[C@H]1F [Example 585, 2-(((3R,4S)-1-((R)-2,3-dihydroxypropanoyl)-3-fluoropiperidin-4-yl)oxy)-5-(4-((4-(4-(oxetan-3-yl)piperazin-1-yl)phenyl)amino)-1,3,5-triazin-2-yl)benzonitrile]
231	3	5	–	CC(C)n1cc(Nc2ncnc(-c3ccc(O[C@H]4CCN(C(=O)[C@H](C)O)C[C@H]4F)c(C#N)c3)n2)cn1 [Example 350, 2-(((3R,4S)-3-fluoro-1-((S)-2-hydroxypropanoyl)piperidin-4-yl)oxy)-5-(4-((1-isopropyl-1H-pyrazol-4-yl)amino)-1,3,5-triazin-2-yl)benzonitrile]

From patent US10040781B2, “Tank-binding kinase inhibitor compounds” (Gilead Sciences, Inc., priority 2014, dated 2018)
